Assay results from US20020006915A1, “Use of COX-2 inhibitors to treat sepsis, complications thereof, and EP receptor modulation” (priority 2000, published 2002).
Entries after “also recorded” stand apart in the source; their conditions may differ. Marks after values point to notes of the source that are not given here.

Legend:
EP4 receptor = EP4 receptor expression in LPS stimulated human PBMC's via RT-PCR; format: cell-based; conditions: PBMC's after injury, co-incubation with NS-398
Experimental: (§1) Serial dilutions were made to co-culture cells with a final concentration of […] NS-398 in a 0.1% DMSO. Control and trauma groups were co-cultured with 0.1% DMSO vehicle for comparisons with NS-398 treated groups.

COX-2 mRNA [1] = experiment: COX-2 mRNA in splenic macrophages by RT-PCR (NS-398 over 7 days); format: in vivo, BALB/c mice; conditions: trauma + NS-398 over 7 days
Experimental: Isolated splenic macrophages were treated with LPS (10 ng/mL) for 6 hours. Extraction of mRNA was done with an RNA extraction kit (Qiagen, Inc.).

[2] = test system: LPS stimulated splenic macrophages; experiment: Mediator production (PGE2, LTB4, TNF-α, NO, IL-6) by LPS stimulated splenic macrophages 7 days after trauma, NS-398 twice a day over 7 days; format: in vivo, BALB/c mice; conditions: for NO: mean ± SEM
Experimental: (§2) Animals, Experimental Protocol, NS-398 preparation were as described in Example I. Macrophages were prepared as described initially under “Macrophage Preparation ” in Example I. After lysis of erythrocytes with ammonium chloride solution and centrifugation as described in Example I, macrophages were further prepared by resuspending the pellet in RPMI-1640 (Gibco BRL, Life Technologies Inc) containing 2 mmol/L L-glutamine, 100 U/mL penicillin, 100 μg/mL streptomycin, 0.25 μg/mL amphotericin B, and 10% heat-inactivated fetal calf serum (Gibco BRL, Life Technologies Inc), counted via hemocytometer and diluted to a final concentration of 5×10^6 cells/mL, and plated in 96 well plates in a volume of 0.2 mL per well. After allowing macrophages to adhere for 2 hours, the remaining cells were suctioned off and the macrophages were cultured in the +/−1 ng LPS 055:B5 (Sigma, St. Louis, Mo.) per mL at 37° C. in 5% carbon dioxide incubators. Supernatants were harvested at 24 hours and stored at −70° C. until analysis for batch enzyme-linked immunosorbent assay processing to determine prostaglandin and cytokine production.
NO was measured indirectly by NO2^− concentration using the Greiss reagent system (Promega, Madison, Wis). Protein was quantified using the BCA protein reagent (Pierce, Rockford, Ill.) and all measurements were normalized to protein content per well.
(§3) BALB/C mice (n=8/group) were given 10mg/kg NS398 intraperitoneally BID for 7 days, starting immediately after sham injury or trauma (femur fracture+40% hemorrhage). Four groups, sham+placebo (C); sham+NS398 (CN); trauma+placebo (T); or trauma+NS398 (TN) were studied. On day 7 after trauma, mice were sacrificed and splenic macrophages evaluated for PGE2, TNF-α and NO production (via Student's t-test). In a separate study, mice (n=10-11/group) were traumatized and given NS398 for 7 days. On day 7, cecal ligation and puncture was performed, and mice evaluated for survival over 3 weeks (via Log-rank test).

[3] = test system: BALB/c mice given a septic challenge by cecal ligation and puncture; experiment: Survival after septic challenge (cecal ligation and puncture) on day 7 after trauma, 3 doses of NS-398 within 24 h; format: in vivo
Excerpt: A value of p<0.05 was considered significant. […] A value of p<0.05 was considered significant.

COX-2 mRNA [4] = experiment: COX-2 mRNA expression in LPS stimulated splenic macrophages by RT-PCR (3 doses within 24 h); format: in vivo, BALB/c mice; conditions: traumatized mice + NS-398, 3 doses within 24 h, day 7
Experimental: Isolated splenic macrophages were treated with lipopolysaccharide (LPS) (10 ng/ml) for six hours.
To evaluate the relative expression of COX-2 mRNA, splenic macrophages were treated as previously described and harvested by RT-PCR.

[5] = Body weight and splenocyte counts 7 days after trauma (NS-398 twice a day over 7 days); format: in vivo, BALB/c mice; conditions: for Body Wt.: day 7
Experimental: as §2
Body weight and splenocyte recovery after injury±NS-398 were recorded.
as §3

IκB-α = experiment: Western blot of cytosolic IκB-α in splenic macrophages; format: in vivo, BALB/c mice; conditions: NS-398 treatment after trauma, over 7 days
Experimental: Cytoplasmic fractions were collected after splenic macrophages were stimulated (as described above) and then boiled in equal volumes of loading buffer (125 mM Tris-HCl, pH 6.8, 4% sodium dodecyl sulfate, 20% glycerol and 10% 2-mercaptoethanol) for 3 minutes and were then separated by electrophoresis on a tris-glycine gradient gel. The proteins were then transferred to nitrocellulose membranes (Xcell II Blot Module; Novex). The membranes were blocked with 10% non-fat dried milk in Tris-buffered saline (TBS), pH 7.6, containing 0.05% tween-20 (TTBS) for 1 hour and then incubated with a polyclonal rabbit anti-mouse antibody to IκB-α (Santa Cruz Laboratories) for 45 minutes. After washing twice in TTMS, the blots were incubated with a peroxidase-conjugated goat anti-rabbit IgG secondary antibody for 15 minutes. The blots were washed in TTBS for 5 minutes three times, then in TBS for 5 minutes, incubated in enhanced chemiluminescence reagents (ECL, Amersham Life Sciences, Buckingham, England) and exposed on radiographic film (Kodak, Rochester, N.Y.).

EP2 receptor = EP2 receptor expression in LPS stimulated human PBMC's via RT-PCR; format: cell-based; conditions: PBMC's after injury, co-incubation with NS-398
Experimental: as §1

[6] = C + NS398, 10 mg/kg i.p. BID for 7 days
[7] = T + NS398, 10 mg/kg i.p. BID for 7 days
[8] = injured mice + NS-398 over 7 days vs untreated injured, P<0.05

## CS(=O)(=O)Nc1ccc([N+](=O)[O-])cc1OC1CCCCC1 [NS-398, N-(2-cyclohexyloxy-4-nitrophenyl)methanesulfonamide]
EP4 receptor
  EP4 receptor expression: reversed; also recorded: restored
COX-2 mRNA [1]
  COX-2 mRNA levels: decreased this induction
[2]; [6]
  TNF-α: 2.6 ± 0.3 pg/μg protein
  NO: 54.8 ± 2.1 nmol/μg protein
[2]; NS-398 given after injury, over 7 days
  LTB4 levels (in words): did not restore LTB4 levels to those seen in control
[2]; [7]
  TNF-α: 2.6 ± 0.3 pg/μg protein
  NO: 48.0 ± 3.3 nmol/μg protein
[2]; injured mice + NS398 (TN), 10 mg/kg i.p. BID for 7 days
  PGE2 production: 3.1±0.4 pg/μg protein
[2]; [8]
  IL-6 production (in words): significantly attenuated production
  NO production (in words): significantly attenuated production
  TNF-α production (in words): significantly attenuated production
[2]; traumatized mice + NS-398 over 7 days, P<0.05
  PGE2 production by splenocytes/macrophages (in words): produce significantly less PGE2
[3]; T + NS, 3 i.p. injections of 10 mg/kg, CLP on day 7, n=10-12
  survival: 92%#
[3]; control mice treated with NS-398
  survival: 66%
[3]; traumatized mice treated with NS-398
  survival: 92%
COX-2 mRNA [4]
  COX-2 mRNA levels relative to GAPDH: attenuated the levels of COX-2 mRNA to below control levels
COX-2 mRNA [4]; listed as NS398
  COX-2 mRNA levels relative to GAPDH: significant decreases
[5]; Control + NS-398, twice a day over 7 days
  Body Wt.: 18.3 ± 0.3 g
[5]; Trauma + NS-398, twice a day over 7 days
  Body Wt.: 16.7 ± 0.7 g
[5]; control versus trauma+NS-398 mice, 7 days after trauma
  difference in body weight: no significant difference
IκB-α
  cytosolic IκB: an increase in cytosolic IκB
EP2 receptor
  EP2 receptor expression: returns to control levels; also recorded: restored
